One data set has as its system HSV-2. Kind of data set: HSV-2/mouse system, formulations with and without LSA. It is filed as in vivo, mice. As to conditions: for effect of addition to the K-II/λ carrageenan composition on efficacy against HSV-2 infection in mice: 5% added. How it is done: LSA-carrageenan was compared to carrageenan in the HSV-2/mouse system in order to determine efficacy in blocking viral infection in vivo.
Each formulation is initially tested in a total of 20 mice. Compounds or formulations that show a blocking effect are assayed again in another 20 mice.
Subsequently, LSA was assayed without Carrageenan to better evaluate its inhibitory properties. LSA was added to the inert thickener, methylcellulose, to maintain the same viscosity that vaginal products (lubricants, spermicides, and microbicides) generally have. (Data shown below.)

For a further data set, the system named is HIV. Kind of data set: Protection of epithelial cells in vitro against HIV infection. Format: cell-based. The text has this: FIG. 5 is a plot of the percent inhibition by LSA of viral replication as measured by p24 ELISA.
(§1) LSA is effective as a microbicide against HSV-2 infection, HIV, and other STI's, with or without carrageenan. […] The inhibitory effect may be observed with other enveloped viruses such as the human pathogen, human T cell leukemia virus. In addition, epithelial cells are protected against the human papillomavirus, which is not an enveloped virus. The inhibitory efficaciousness of LSA may thus extend to a broader range of STI's.

Another data set deals with human papillomavirus. Nature of the data set: Protection of epithelial cells against human papillomavirus. Format: cell-based.
Description: as §1

For data set [1] the following is noted: in vivo, po; cited from earlier work.
For data set [2] the following is noted: in vivo, po; cited from earlier work. The source holds these as a separate data set.
Data set [3] is described as follows: Diffusion of NES through a dialysis membrane (HPLC). As to conditions: molecular weight cutoff 1000, HPLC. Format: physicochemical. The text has this:
FIG. 10 is a graph of the amount of Nestorone released from a composition containing the carrageenans of the present invention.
We examined diffusion of NES through a dialysis membrane with a molecular weight cutoff of 1000. The molecular weight of NES is 370. […] Results are illustrated in FIG. 10. […] However, the rate of diffusion observed through the dialysis membrane cannot be related to the rate of diffusion that would be observed in the human vagina as the rate of diffusion was dependant on the surface area of the dialysis bag. Conditions in the vagina would be different.
Diffusion of NES from CARRA/NES was investigated by two different methods, membrane dialysis and Ultrafree-15 centrifugation. In the membrane dialysis experiments, the membrane cutoff is 1,000, and diffusion of NES was measured by HPLC. […] In the Ultrafree-15 centrifugation experiments, a Millipore, Ultrafree-15 centrifugal filter and tube assembly was employed, which allows the passage of molecules of a MW<500 pass through; NES MW is 370.

The subject of the next data set is progestational potency. The following applies: cited from earlier work.
Data set [4] deals with androgenic, estrogenic and glucocorticoid-like (hepatic glycogen deposition) activity. As to conditions: cited from earlier work.
The conditions of data set [5]: in vivo; cited from earlier work.

“Also recorded” adds a separate entry of the source.

As to lignosulfonic acid [LSA], in the data set with HSV-2 (concentration of 0.25%), the “effectiveness of LSA” value is listed as “highly effective”. Moreover, the “blocking of HSV-2 infection in mice by LSA without carrageenan” value in the data set with HSV-2 (mouse, in vivo) is reported as “more effective than carrageenan; also recorded: effective in protecting”. The “protection of epithelial cells against HIV infection” value with HIV was “effective in protecting”. In addition, in the data set on human papillomavirus, the “protection of epithelial cells against human papillomavirus” value is on record as “protected”.

For the compound carrageenan, the toxicity entry in data set [1] is listed as “non-toxic”. In addition, in data set [2], the absorption result is reported as “virtually non-existent” and the “breakdown in the gastrointestinal tract” value is reported as “minimal at best”.

As for dextran sulfate, the “effect of addition to the K-II/λ carrageenan composition on efficacy against HSV-2 infection in mice” value with HSV-2 is listed as “had no effect on efficacy”.

`C=C1C[C@H]2[C@@H]3CCC4=CC(=O)CC[C@@H]4[C@H]3CC[C@]2(C)[C@@]1(OC(C)=O)C(C)=O` [NES, 16-methylene-17α-acetoxy-19-norpregn-4-ene-3,20-dione]: the “diffusion of NES through dialysis membrane” value in data set [3] was “diffused from the dialysis bag at a constant rate”. In the data set on progestational potency, the “progestational activity relative to levonorgestrel” value is on record as 10 times and the “progestational activity relative to progesterone” value is reported as 100 times. Besides, the “androgenic, estrogenic and glucocorticoid-like activity” value in data set [4] was “lack of androgenic, estrogenic and glucocorticoid-like”. Further, the “metabolism upon oral administration” value in [5] is “rapid metabolism and inactivation”.

On to heparin, for which the “effect of addition to the K-II/λ carrageenan composition on efficacy against HSV-2 infection in mice” value in the data set on HSV-2 is reported as “had no effect on efficacy”.

These data come from US20050171053A1, “Carrageenan based antimicrobial compositions” (FMC Corporation, priority 2002, published 2005).
